Source: patent publication US20050014767A1, “Benzoxazole, benzothiazole, and benzimidazole derivatives for the treatment of cancer and other diseases” (priority 2003, published 2005)
“Also recorded” adds a separate entry of the source.

Columns and labels:
[1] = system: phosphorylated JNK proteins; test: Western Blot assay for JNK protein phosphorylation in H292 lung cancer cells; format: cell-based, human; details: 2.5 micromolar, 16 hours, FIG. 15
Method: Phosphorylated JNK proteins can be specifically detected by employing an antibody specific to phosphorylated JNK, followed by Western Blotting analysis. […] In particular, the human lung cancer cell line H292, purchased from the American Type Culture Collection (ATCC) (Manassas, Va.), was tested for JNK-activation induced by compounds 1, 2, 11, and 12 described herein.
H292 cells were grown in RPMI medium 1640 containing 2 mM L-glutamine; 10 U/ml Pen-G; 10 mcg/ml Streptomycin and 10% FCS.
Cells were kept at 6% CO2 and 37° C. H292 cells were plated at 70% confluence (adherent growing cells covering 70% of culture plate surface area) in a 10 centimeter tissue culture dish in the medium indicated above.
Compounds 1, 2, 11, and 12 were applied to cultures of the H292 cells in the medium indicated above at a concentration of 2.5 micromolar. DMSO (dimethyl sulfoxide, Sigma, St. Louis, Mo.) was used as vehicle control, and never exceeded 0.1% final concentration. Treatment was for 16 hours.
At the end of incubation of the cultured cells with the test compounds, the medium was removed and the plated cells were washed twice with cold PBS (phosphate buffer saline). Excess PBS was aspirated away and the cells were lysed and scraped into sample buffer containing 50 mM HEPES pH 7.5 (buffer), 150 mM NaCl, 0.1% Tween 20 (a detergent, Biorad, Hercules, Calif.), 20 mM NaF, 10 mcg/mL aprotinin, 10 mcg/mL leupeptin. Samples were incubated on ice for 15 minutes and insoluble material was pelleted by microfugation. Protein concentrations for each sample were determined using BSA (Bovine serum albumin, Sigma, St Louis, Mo.) as a standard in a colorimetric protein quantification assay (BioRad, Hercules, Calif.).
100 mcg of each sample of cellular lysate were subjected to electrophoresis on 12% SDS-PAGE (polyacrylamide gel electrophoresis) gels (BioRad, Hercules, Calif.). Proteins were transferred to PVDF membrane. Membranes were probed with a monoclonal antibody recognizing phosphorylated JNK (Cell Signaling, Beverly, Mass.) followed by HRP(horseradish peroxidase)-conjugated goat-anti-mouse antibody (Santa Cruz Biotechnology, Santa Cruz, Calif.). Immunoreative bands were visualized by ECL (enhanced chemiluminescence, Amersham, Buckinghanshire, England) detection on film (Kodak, Rochester, N.Y.).

A549 cells = test: MTT assay, non-small-cell lung cancer cell line; format: cell-based, human; details: 1x10^-8 to 1x10^-5 M, FIG. 7
Source text: (§1) Representative compounds of the invention were screened for anti-cancer activity by the procedures and methods described below. The following human cancer cell lines were used to detect anti-cancer activity. • The breast cancer cell line MDA-MB468 served to detect anti-breast cancer activity. • The prostate cancer cell line PC-3 was used to detect anti-prostate cancer activity • The non-small-cell lung cancer cell line A549 was used to detect anti-lung cancer activity • The pancreatic cancer cell line BX-PC-3 was used to detect anti-pancreatic cancer activity. • Cell lines were purchased from American Type Culture Collection (ATCC). Cell Culture conditions:
(§2) The cancer cell cultures were grown as recommended by the ATTC manuals. A549 cells and BX-PC-3 cells were grown in DME Dulbecco's modified Eagle's medium containing 4500 mg/L glucose; 4 mM L-glutamine; 10 U/ml Pen-G; 10 mcg/ml […] and 10% fetal calf serum (FCS). PC-3 and MDA-MB468 cells were grown in RPMI medium 1640 containing 2 mM L-glutamine; 10 U/ml Pen-G; 10 mcg/ml Streptomycin and 10% FCS. Cells were kept at 6% CO2 and 37° C. Cells were seeded on day zero in 96-well format tissue culture plates at suitable densities the day before starting treatment, in the media indicated above.
(§3) On day one, the compounds of the invention were added to the culture media of growing cells, containing 10% […]. The cell media contained the compounds of the invention at one of six concentrations: 1×10^−8, 5×10^−8, 1×10^−7, 5×10^−7, 1×10^−6, and 1×10^−5M. In control experiments, 0.1% DMSO was used as vehicle control, and never exceeded 0.1% final concentration. On day four the media was removed from the cells and replaced with fresh media containing the compounds of the invention and FCS at the appropriate concentrations.
On day five 10 μl of 5 mg/ml MTT dye was added to each well containing a cell culture. The MTT assay is based on the dehydrogenase activity in active mitochondria for cleavage of the yellow tetrazolium salt MTT to produce purple formazan crystals. This conversion of MTT only occurs in living cells with intact/functional mitochondria. After addition of MTT, the cells were incubated for additional 4 hours at 6% CO2 and 37° C. Reaction was then stopped by adding 100 μl/well of a solubilization solution consisting of 10% Sodium Dodecyl Sulfate (SDS) and 10 mM HCl. On day 6 the formazan crystals formed were solubilized and the resulting colored solution quantified using a scanning multiwell spectrophotometer at a wavelength of 595 nm.
The procedure of Example 21 was employed to measure the anti-cancer activity of compounds 1 & 2 of the invention and compare them with equivalent activity tests for Comparative Compound 4, whose synthesis is given in Example 4. […]

PC-3 cells = test: MTT assay, prostate cancer cell line; format: cell-based, human; details: PC-3 prostate cancer cells; 1x10^-8 to 1x10^-5 M; FIG. 9
Source text: as §1, §2, §3
(§4) On day five 10 μl of 5 mg/ml MTT dye was added to each well containing a cell culture. […] On day 6 the formazan crystals formed were solubilized and the resulting colored solution quantified using a scanning multiwell spectrophotometer at a wavelength of 595 nm. […]

MDA-MB468 cells = test: MTT assay, breast cancer cell line; format: cell-based, human; details: 1x10^-8 to 1x10^-5 M, FIG. 8
Source text: as §1, §2, §3, §4

BX-PC-3 cells = test: MTT assay, pancreatic cancer cell line; format: cell-based, human; details: BX-PC-3 pancreatic cancer cells; 1x10^-8 to 1x10^-5 M; FIG. 10
Source text: as §1, §2, §3, §4

| melting point [°C] | Compound | phosphorylation of JNK proteins (phospho-JNK bands) [1] | anti-cancer activity (MTT) (A549 cells) | anti-cancer activity (MTT) (PC-3 cells) | anti-cancer activity (MTT) (MDA-MB468 cells) | anti-cancer activity (MTT) (BX-PC-3 cells) |
| --- | --- | --- | --- | --- | --- | --- |
| 314 to 316 | Cc1nc2cc(-c3ccc(/C=C4\SC(=O)NC4=O)cn3)cc(C3CCCCC3)c2o1 [Compound 11, 5-[6-(7-Cyclohexyl-2-methyl-benzoxazol-5-yl)-pyridin-3-ylmethylene]-thiazolidine-2,4-dione] | only weakly induced the phosphorylation of JNK proteins | only relatively weak activity | – | – | – |
| – | O=C1NC(=O)/C(=C/c2ccc(-c3cc(C45CC6CC(CC(C6)C4)C5)c4ocnc4c3)nc2)S1 [Compound 2, 5-[6-(7-Adamantan-1-yl-benzoxazol-5-yl)-pyridin-3-ylmethylene]-thiazolidine-2,4-dione] | results in the production of phosphorylated JNK proteins; also recorded: induced the phosphorylation of JNK proteins; also recorded: potent activators of the phosphorylation of JNK proteins | consistent and potent anti-cancer activity at low concentrations | consistent and potent anti-cancer activity at low concentrations | consistent and potent anti-cancer activity at low concentrations | consistent and potent anti-cancer activity at low concentrations |
| – | O=C1NC(=O)/C(=C/c2ccc(-c3cc(C4CCCCC4)c4ocnc4c3)nc2)S1 [Compound 12, 5-[6-(7-Cyclohexyl-benzoxazol-5-yl)-pyridin-3-ylmethylene]-thiazolidine-2,4-dione] | results in the production of phosphorylated JNK proteins; also recorded: activates the phosphorylation of JNK proteins, though perhaps less potently than compound 1 or 2 | – | – | – | – |
| – | Nc1nc2cc(-c3ccc(/C=C4\SC(=O)NC4=O)cn3)cc(C34CC5CC(CC(C5)C3)C4)c2o1 [Compound 14, 5-[6-(7-Adamantan-1-yl-2-amino-benzoxazol-5-yl)-pyridin-3-ylmethylene]-thiazolidine-2,4-dione] | – | consistent and potent anti-cancer activity at low concentrations | consistent and potent anti-cancer activity at low concentrations | consistent and potent anti-cancer activity at low concentrations | consistent and potent anti-cancer activity at low concentrations |
| – | Cc1nc2cc(-c3ccc(/C=C4\SC(=O)NC4=O)cn3)cc(C34CC5CC(CC(C5)C3)C4)c2o1 [Compound 1, 5-[6-(7-Adamantan-1-yl-2-methyl-benzoxazol-5-yl)-pyridin-3-ylmethylene]-thiazolidine-2,4-dione] | results in the production of phosphorylated JNK proteins; also recorded: induced the phosphorylation of JNK proteins; also recorded: potent activators of the phosphorylation of JNK proteins | consistent and potent anti-cancer activity at low concentrations | consistent and potent anti-cancer activity at low concentrations | consistent and potent anti-cancer activity at low concentrations | consistent and potent anti-cancer activity at low concentrations |
